Experimental data reported in patent publication US6197746A, “Method of using secretin for treating autism” (priority 1999, dated 2001).
Entries after “also recorded” stand apart in the source; their conditions may differ.

Columns and labels:
pancreas = assay: Pancreatic juice release after intravenous secretin during upper gastrointestinal endoscopy (Example 1); type: in vivo, human; conditions: immediately after 2 CU/kg i.v. over one minute; usual rate 1-2 ml/min
Method: (§1) When the patient was […], the secretin was administered by way of an infusion as part of an upper gastrointestinal endoscopy. The secretin was used in this diagnostic procedure at the request of the patient's parents, one of which is an inventor of the present invention. The secretin used in this procedure is known as Secretin-Ferring available from Ferring Laboratories, Inc., Suffern, N.Y. (See Appendix A). The secretin was dissolved in a […] solution of sodium chloride and administered in a dosage of 2 clinical units (CU) per kilogram (kg) body weight by intravenous injection over one minute. (I.E. 30 IU IV for approximately 15 kilograms of body weight.)
(§2) The diagnostic tests performed on the patient during this procedure also indicated gastric inflammation. […] The following Table I summarizes the improvements observed in the patient within 3 weeks after the infusion of secretin.

symptoms of autism [1] = assay: Symptoms and behaviour of a child with symptoms of autism after secretin infusion (Example 1, Table I); type: in vivo, human
Method: The present invention will be better understood from the following examples which are given by way of illustration and not by way of limitation. The patient, the same in both examples, is a child with symptoms of autism.
as §1, §2

brain perfusion = assay: SPECT scan of the brain after secretin infusion (Example 1); type: in vivo, human
Method: Further, the patient's secretin cells prior to receiving treatment, measured at a level of 9, are far below the normal limit in the range of 20-70.
(§3) Biomedical changes were also measured in the patient.

[2] = system: serotonin levels; rubella titers; assay: Blood tests after secretin infusion (Example 1); type: in vivo, human
Method: as §3

symptoms of autism [3] = assay: Daily transdermal secretin with DMSO in a child with symptoms of autism (Example 2); type: in vivo, human
Method: At the time of this treatment, the patient was […]. Secretin was administered transdermally using pharmaceutical grade dimethyl sulfoxide (DMSO) (generally 99.9% pure) available from Clinic Service Co., Box 2512, Hemet Calif. 92543. The secretin (Secretin-Ferring) was administered daily in a dosage of about 75 CU over a five day period (i.e., about 15 CU daily) For each treatment, about 4 drops of DMSO were placed onto the skin of the patient, about 15 CU of the crystalline secretin was placed onto the DMSO, and the composition was rubbed into the skin.

abnormal opioid peptides = conditions: after the secretin infusion; autistic children that responded to casein free and gluten free diet; cited from earlier work
[4] = within weeks after the treatment

Question: What does the source list for secretin?
Answer: amount of pancreatic juice being released (pancreas): approximately 10 ml/min; rate of the patient's progress (symptoms of autism [1]; at about 5 weeks after first infusion): appeared to decrease; results of second and third infusions (symptoms of autism [1]; second about 9 months after first, third about three months after second): achieved the same results; limited diet preferences (symptoms of autism [1]; within 3 weeks after infusion): No Change; water consumption (symptoms of autism [1]; within 3 weeks after infusion): approximately 50 cups per day; bowel movements (symptoms of autism [1]; within 3 weeks after infusion, before: abnormal): Normal bowel movements; excessive water consumption (symptoms of autism [1]; within 3 weeks after infusion, before: approximately 50 cups per day): no change; potty training (symptoms of autism [1]; within 3 weeks after infusion, before: diapers only): Completely potty trained; imitation of commands (symptoms of autism [1]; within 3 weeks after infusion, before: did not imitate): Will imitate almost any multi-step; "spinning" episodes (symptoms of autism [1]; within 3 weeks after infusion, before: infrequent (1-2 times/week)): No spinning episodes; eye contact (symptoms of autism [1]; within 3 weeks after infusion, before: minimal eye contact): 75 % of the time; connections made between language and objects (symptoms of autism [1]; within 3 weeks after infusion, before: no apparent connections): Many connections made between new; flash cards (symptoms of autism [1]; within 3 weeks after infusion, before: no flash cards): 40-50 flash cards; focus on requested tasks (symptoms of autism [1]; within 3 weeks after infusion, before: no focus): Will sit and watch carefully; interest in drawing (symptoms of autism [1]; within 3 weeks after infusion, before: no interest): Wants to draw constantly; response to request for gestures (symptoms of autism [1]; within 3 weeks after infusion, before: no response): Responds to all kinds of things; sentences (symptoms of autism [1]; within 3 weeks after infusion, before: no sentences): Short sentences; words (symptoms of autism [1]; within 3 weeks after infusion, before: two words): 100's of words; sleeping problems (symptoms of autism [1]; within 3 weeks after infusion, before: up numerous times each night): Has slept through almost every night; interaction with videos (symptoms of autism [1]; within 3 weeks after infusion, before: watch videos): gets "involved" interactively; chronic abnormal bowel movements (symptoms of autism [1]; within days after the administration, no change of diet): became normal; eye contact (symptoms of autism [1]; [4]): able to make normal eye contact; language (symptoms of autism [1]; [4]): language appeared for the first time in two years; other behavioral and developmental problems (symptoms of autism [1]; [4]): improved remarkably; perfusion of the right posterior parietal and right temporal lobes (blood flow in the brain) (brain perfusion): improved; also recorded: increased; measles, mumps and rubella antibodies ([2]; after the secretin administration in Example 1): reduction; rubella titers ([2]; after the treatment, dropped from 5.8): 2.3; serotonin levels ([2]; blood, after the treatment): rise and increase; autistic behavioral symptoms when the daily dose is stopped (symptoms of autism [3]; transdermal daily dose stopped): autistic behavioral symptoms return; language (symptoms of autism [3]; transdermal daily, within a period of about 6 months): progressed to spontaneous and conversational language; abnormal opioid peptides (abnormal opioid peptides): disappeared
